Reference: US8926603B2, “System and method for denaturing and fixing collagenous tissue” (Hansen Medical, Inc., priority 2004, dated 2015)

Assay: denaturation accompanied by genepin treatment, study at the University of Pennsylvania (FIG. 6)
Details: versus denatured collagenous tissue without genepin treatment
From the text: Referring to FIGS. 5A-C, a denatured collagenous tissue mass exposed to genepin (371) is depicted. […] The result is a partial recovery or recreation of the mechanical properties of collagenous tissue to the state that they were prior to denaturation. […] Referring to FIG. 6, this has been experimentally confirmed in a study at the University of Pennsylvania, as directed by the inventors of the subject invention.

## COC(=O)C1=CO[C@@H](O)[C@@H]2C(CO)=CC[C@H]12 [genepin]
  susceptibility to creep deformation of denatured collagenous tissue: less susceptible to creep deformation
